The source of these data is patent publication US9867799B2, “Diethyl-[6-(4-hydroxycarbamoyl-phenyl-carbamoyloxy-methyl)-naphthalen-2-yl-methyl]-ammonium chloride for use in the treatment of muscular dystrophy” (ITALFARMACO S.P.A., priority 2012, dated 2018).

The nature of data set [1]: UDS test in vivo (genotoxicity).
A short description of data set [2]: Micronucleus test in vivo (genotoxicity).
A short description of data set [3]: Chromosomal aberration assay in vitro (genotoxicity). The class given is cell-based.
For the next data set, the system named is mouse lymphoma. As to the kind of experiment: Mouse lymphoma assay in vitro (genotoxicity). In kind it is cell-based.
The subject of data set [4] is children with Systemic Onset Juvenile Idiopathic Arthritis. To be noted: 1.5 mg/kg/day for twelve weeks; cited from earlier work.
A further data set relates to dogs, rats and monkeys. Put plainly: Repeated dose toxicity studies. The class given is in vivo. To be noted: oral daily doses up to nine consecutive months. On the procedure: To date more than 500 patients (including 29 children) have been treated with Givinostat. Repeated dose toxicity studies were carried out in dogs, rats and monkeys. Oral daily doses of the drug were administered up to nine consecutive months. […] The “no adverse effect levels” (NOAEL) ranged from 10 to 25 mg/kg/day depending on the animal species and the duration of treatment.

Another data set relates to juvenile animals. As to the kind of experiment: Juvenile animal toxicity (development and reproductive performance). The class given is in vivo. To be noted: 60 mg/kg/day.

In the case of “diethyl-[6-(4-hydroxycarbamoyl-phenyl-carbamoyloxy-methyl)-naphthalen-2-yl-methyl]-ammonium chloride [Givinostat]”, the genotoxic effect entry (in data set [1]; in data set [2]; in data set [3]; in the data set with mouse lymphoma) was “No genotoxic effect” in each case. Besides, the “ACR Pedi 30, 50 and 70 improvement” value in data set [4] is given as “approximately 70%”. Moreover, in data set [4], the adverse effects result is “only a limited number of mild or moderate but short lasting, adverse effects”. Also, in the data set with dogs, rats and monkeys, the “tolerability / overt toxicity” value is “well tolerated with no overt toxicity at high doses”. Besides, the “behavioural and physical development and reproductive performance of pups” value in the data set with juvenile animals is “did not affect the behavioural and physical development and reproductive performance of pups”.
